# Experimental data from ChEMBL document CHEMBL5728383, “Isoquinoline ether compounds as mGluR4 allosteric potentiators, compositions, and methods of treating neurological dysfunction” (2021).
# Target: Metabotropic glutamate receptor 4 (Homo sapiens, UniProt Q14833)
# Experiment: Receptor Activity Assay: The disclosed compounds and compositions can be evaluated for their ability to act as a potentiator of metabotropic glutamate receptor activity, in particular mGluR4 activity, by any suitable known methodology known in the art. For example, Chinese Hamster Ovary (CHO) cells transfected with human mGluR4 or HEK cells co-transfected with rat mGuR4 and the G-protein regulated Inwardly Rectifying Potassium channel (GIRK) were plated in clear bottom assay plates for assay in a Hamamatsu FDSS Fluorometric Plate Reader. The cells were loaded with either a Ca2+-sensitive fluorescent dye or the thallium responsive dye and the plates were washed and placed into a suitable kinetic plate reader. For human mGuR4 assays, a fluorescence baseline was established for 3-5 seconds, the disclosed compounds were then added to the cells, and the response in cells was measured. Approximately two and a half minutes later, a concentration of mGuR4 orthosteric agonist (e.g. glutamate or L-AP4) eliciting approximately 20% (EC20) of the maximal agonist response was added to the cells, and the response was measured. Two minutes later, a concentration of mGluR4 agonist (e.g. glutamate or L-AP4) eliciting 80% (EC80) of the maximal agonist response was added to the cells, and the response was measured. For rat mGuR4/GIRK experiments, a baseline was established for approximately five seconds, disclosed compounds were added, and either an EC20 or EC80 concentration of agonist was added approximately two and one half minutes later.
# Metabotropic glutamate receptor 4, sequence (Q14833 whole entry): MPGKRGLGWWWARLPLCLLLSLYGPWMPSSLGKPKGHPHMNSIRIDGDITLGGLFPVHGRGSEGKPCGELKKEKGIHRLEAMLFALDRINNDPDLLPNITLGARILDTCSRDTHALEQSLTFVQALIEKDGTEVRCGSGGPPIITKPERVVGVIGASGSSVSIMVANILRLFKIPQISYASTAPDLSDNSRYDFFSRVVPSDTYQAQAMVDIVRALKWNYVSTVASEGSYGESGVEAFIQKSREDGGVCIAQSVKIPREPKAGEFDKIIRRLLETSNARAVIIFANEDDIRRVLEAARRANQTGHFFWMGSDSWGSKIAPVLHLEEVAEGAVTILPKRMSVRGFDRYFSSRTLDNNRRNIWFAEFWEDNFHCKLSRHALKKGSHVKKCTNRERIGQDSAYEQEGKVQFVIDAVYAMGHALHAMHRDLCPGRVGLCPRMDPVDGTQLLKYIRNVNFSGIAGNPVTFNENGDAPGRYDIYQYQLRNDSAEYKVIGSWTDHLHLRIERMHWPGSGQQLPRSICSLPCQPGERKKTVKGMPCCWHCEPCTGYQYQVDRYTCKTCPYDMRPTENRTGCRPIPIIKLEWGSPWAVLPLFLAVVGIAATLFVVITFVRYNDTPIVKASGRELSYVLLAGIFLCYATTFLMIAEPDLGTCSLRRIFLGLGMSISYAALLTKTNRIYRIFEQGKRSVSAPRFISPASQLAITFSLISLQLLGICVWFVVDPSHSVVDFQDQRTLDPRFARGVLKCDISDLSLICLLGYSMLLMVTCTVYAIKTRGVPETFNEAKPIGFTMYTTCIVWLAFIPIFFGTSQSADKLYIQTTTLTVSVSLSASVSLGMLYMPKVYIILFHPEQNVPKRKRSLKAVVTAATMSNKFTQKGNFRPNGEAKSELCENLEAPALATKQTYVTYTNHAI
row,SMILES,EC50 [nM]
1,CCOCCOc1nccc2cc(Nc3n[nH]c4ncccc34)ccc12,48.4
2,Fc1cnc2c(Nc3ccc4c(O[C@H]5CCOC5)nccc4c3)n[nH]c2c1,82.3
3,COCCOc1nccc2cc(Nc3n[nH]c4ncccc34)ccc12,51.5
4,c1cnc2[nH]nc(Nc3ccc4c(O[C@@H]5CCOC5)nccc4c3)c2c1,64
5,COCCOc1nccc2cc(Nc3n[nH]c4cc(F)cnc34)ccc12,69
6,C[C@H]1OCC[C@H]1Oc1nccc2cc(Nc3n[nH]c4cccnc34)ccc12,55.9
7,C[C@@H]1C[C@H](Oc2nccc3cc(Nc4n[nH]c5cccnc45)ccc23)CO1,48.3
8,c1cnc2[nH]nc(Nc3ccc4c(OCCN5CCOCC5)nccc4c3)c2c1,148
9,C[C@H]1C[C@H](Oc2nccc3cc(Nc4n[nH]c5ncccc45)ccc23)CO1,70.7
10,C[C@H]1OCC[C@H]1Oc1nccc2cc(Nc3n[nH]c4ncccc34)ccc12,154
11,C[C@@H]1C[C@H](Oc2nccc3cc(Nc4n[nH]c5ncccc45)ccc23)CO1,152
12,COCCOc1nccc2cc(Nc3n[nH]c4ncc(F)cc34)ccc12,82.3
13,Fc1cnc2[nH]nc(Nc3ccc4c(OC5CCOCC5)nccc4c3)c2c1,118
14,c1cnc2[nH]nc(Nc3ccc4c(OCC5CCOC5)nccc4c3)c2c1 (stereo not drawn),54.3
15,c1cnc2[nH]nc(Nc3ccc4c(OCC5COCCO5)nccc4c3)c2c1 (stereo not drawn),121
16,CO[C@H](C)COc1nccc2cc(Nc3n[nH]c4ncccc34)ccc12,77.1
17,c1cnc2[nH]nc(Nc3ccc4c(OCC5CCCCO5)nccc4c3)c2c1 (stereo not drawn),75.2
18,COCCOc1nccc2cc(Nc3n[nH]c4ccccc34)ccc12,76.9

# The next compounds have a lower EC50 than those just listed; values first:
row,EC50 [nM],SMILES
1,45.9,c1cnc2[nH]nc(Nc3ccc4c(OCC5CCOCC5)nccc4c3)c2c1
2,44.2,c1cnc2[nH]nc(Nc3ccc4c(O[C@H]5CCOC5)nccc4c3)c2c1
3,43.6,c1cc2cc(Nc3n[nH]c4nccnc34)ccc2c(O[C@@H]2CCOC2)n1
4,41.2,c1cnc2c(Nc3ccc4c(OCCN5CCOCC5)nccc4c3)n[nH]c2c1
5,37.6,c1cnc2c(Nc3ccc4c(O[C@H]5CCOC5)nccc4c3)n[nH]c2c1
6,36.1,c1cnc2c(Nc3ccc4c(O[C@@H]5CCOC5)nccc4c3)n[nH]c2c1
7,35.9,Fc1cnc2c(Nc3ccc4c(OCC5COCCO5)nccc4c3)n[nH]c2c1 (stereo not drawn)
8,35.2,COCCOc1nccc2cc(Nc3n[nH]c4nccnc34)ccc12
9,31.9,c1cnc2c(Nc3ccc4c(O[C@@H]5CCCOC5)nccc4c3)n[nH]c2c1
10,28.5,c1cc2cc(Nc3n[nH]c4nccnc34)ccc2c(OCC2COCCO2)n1 (stereo not drawn)
11,27.3,c1cnc2c(Nc3ccc4c(O[C@H]5CCCOC5)nccc4c3)n[nH]c2c1
12,26.9,C[C@H]1C[C@H](Oc2nccc3cc(Nc4n[nH]c5cccnc45)ccc23)CO1
13,22.3,CCOCCOc1nccc2cc(Nc3n[nH]c4cccnc34)ccc12
14,22.1,c1cc2cc(Nc3n[nH]c4nccnc34)ccc2c(O[C@H]2CCOC2)n1
15,21.5,CCOCCOc1nccc2cc(Nc3n[nH]c4nccnc34)ccc12
16,19.9,COCCOc1nccc2cc(Nc3n[nH]c4cccnc34)ccc12
17,17.5,CO[C@H](C)COc1nccc2cc(Nc3n[nH]c4nccnc34)ccc12
18,16.1,c1cc2cc(Nc3n[nH]c4nccnc34)ccc2c(OCC2CCOCC2)n1
19,15.7,c1cnc2c(Nc3ccc4c(OCC5CCCOC5)nccc4c3)n[nH]c2c1 (stereo not drawn)
20,14.5,CO[C@H](C)COc1nccc2cc(Nc3n[nH]c4cccnc34)ccc12
21,12.6,c1cnc2c(Nc3ccc4c(OCC5COCCO5)nccc4c3)n[nH]c2c1 (stereo not drawn)
22,12.6,c1cnc2c(Nc3ccc4c(OC5CCOCC5)nccc4c3)n[nH]c2c1
23,12,c1cnc2c(Nc3ccc4c(OCC5CCOC5)nccc4c3)n[nH]c2c1 (stereo not drawn)
24,11.6,c1cnc2c(Nc3ccc4c(OCC5CCOCC5)nccc4c3)n[nH]c2c1
25,10.4,c1cc2cc(Nc3n[nH]c4nccnc34)ccc2c(OCC2CCOC2)n1 (stereo not drawn)
